Experimental findings from patent US20090137580A1, “Fused Heterocyclic Derivatives and Use Thereof” (Takeda Pharmaceutical Company Limited, priority 2005, published 2009) are described below.

Experiment [1] relates to Human umbilical vein endothelial cells (HUVEC). Put plainly: Vascular endothelial cell growth inhibitory test. The conditions noted are these: Homo sapiens, 120 h, VEGF 120 ng/mL, culture 5 days, XTT reagent. It counts as cell-based. The method, then: Human umbilical vein endothelial cells (HUVEC, purchased from KURABO) were cultured in a gas incubator (37° C., CO2 5%) in a vascular endothelial cell medium (Invitrogen) containing 5% fetal calf serum and a basic fibroblast growth factor (2.5 ng/mL). To be specific, HUVEC suspended in the aforementioned vascular endothelial cell medium (Invitrogen) containing 5% fetal calf serum were seeded into a 96 well flat-bottom plate (50 μL, 3000 cells each well). After culturing overnight, various concentrations of test substance and the final concentration (120 ng/mL) of vascular endothelial growth factor (VEGF) were dissolved in a vascular endothelial cell medium (Invitrogen) containing 5% fetal calf serum and added to each well (50 μL). After culturing for 5 days, an XTT reagent (Wako Pure Chemical Industries, Ltd.) was added to each well (10 μL), and reacted in a gas incubator (37° C., CO2 5%) for 2-3 hr. The absorbance at 450 nm was measured by a microtiter plate reader, and the cell growth inhibitory activity was determined.

In experiment [2] the target is T1, VEGF Receptor 2 Kinase (VEGFR2) (Homo sapiens, UniProt P35968).
T1 construct: made in house; host or cells: SF-21 insect cells, recombinant baculovirus BAC-VEGFR2 (pFASTBAC1)
T1 sequence (P35968 786-1356 limits assumed): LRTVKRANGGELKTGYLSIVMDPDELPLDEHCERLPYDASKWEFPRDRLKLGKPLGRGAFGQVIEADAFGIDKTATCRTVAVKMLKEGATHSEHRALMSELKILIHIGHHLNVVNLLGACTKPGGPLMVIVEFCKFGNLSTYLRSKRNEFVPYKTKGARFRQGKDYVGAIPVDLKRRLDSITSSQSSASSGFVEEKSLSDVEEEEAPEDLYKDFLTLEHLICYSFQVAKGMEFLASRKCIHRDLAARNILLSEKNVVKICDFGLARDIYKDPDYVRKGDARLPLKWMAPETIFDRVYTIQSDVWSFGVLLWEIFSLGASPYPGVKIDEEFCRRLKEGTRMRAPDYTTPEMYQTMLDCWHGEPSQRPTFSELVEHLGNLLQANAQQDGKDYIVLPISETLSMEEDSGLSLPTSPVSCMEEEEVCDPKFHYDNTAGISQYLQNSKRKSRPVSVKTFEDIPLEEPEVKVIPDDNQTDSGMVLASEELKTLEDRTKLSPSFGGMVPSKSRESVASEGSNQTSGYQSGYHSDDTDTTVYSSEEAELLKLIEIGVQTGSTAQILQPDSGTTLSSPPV
Put plainly: Determination of VEGF receptor 2 kinase (VEGFR2) inhibitory activity (alpha screen). It counts as biochemical. The conditions noted are these: VEGFR2 intracellular domain protein, 25 μM ATP buffer, read-out: inhibitory rate (kinase inhibitory rate of VEGFR2). The method, then: For cloning of human VEGF receptor 2 (hereinafter to be abbreviated as VEGFR2) gene, PCR was performed using cDNA Libraries Human Placenta (Clontech) as a template. The primer used for PCR was prepared by, based on the information of the base sequence (Genbank Accession AF035121) of VEGFR2 gene, adding a base sequence encoding the flag peptide and a restriction enzyme recognition sequence to the base sequence (2671-4374 of Genbank Accession AF035121) encoding the VEGFR2 intracellular domain, so that a flag tag would be added to the N terminal of the protein. The primer base sequence is shown in the following.
PCR reaction was carried out using a KOD-plus kit (TOYOBO). The obtained PCR product was electrophoresed on an agarose gel (1%), and a DNA fragment amplified by PCR was recovered from the gel and digested with restriction enzymes Sal I and Sph I. The DNA after the restriction enzyme treatment was electrophoresed on an agarose gel (1%), and the obtained DNA fragment was recovered and ligated to the plasmid pFASTBAC1 (Invitrogen) digested with restriction enzymes Sal I and Sph I to give an expression plasmid pFB-VEGFR2. The base sequence of the inserted fragment was confirmed to have matched with the base sequence (2671-4374 of Genbank Accession AF035121) of the VEGFR2 intracellular domain. Furthermore, virus stock BAC-VEGFR2 of the recombinant Baculovirus was prepared using BAC-TO-BAC Baculovirus Expression System (Invitrogen).
SF-21 cells were inoculated into 1 L of Sf-900IISFM medium (Invitrogen) containing 10% fetal calf serum (trace), 50 mg/L Gentamicin (Invitrogen) and 0.1% Pluronic F-68 (Invitrogen) at 1×10^6 cells/ml, and shake culture was performed using a 2 L Erlenmeyer flask at 27° C., 100 rpm. After 24 hr of culture, recombinant Baculovirus BAC-VEGFR2 (13.4 mL) was added, and the culture was continued for 3 days. The culture medium was centrifuged at 2,000 rpm for 5 min to give virus-infected cells. The infected cells were washed with phosphate buffered saline (Invitrogen), centrifuged under the same conditions, and preserved at −80° C. The cryopreserved cells were thawed in ice, suspended in 30 mL of buffer A (Tris buffer, pH 7.4, containing 20% glycerol and 0.15M NaCl (50 mM)) supplemented with Complete Protease Inhibitor (Boehringer), and disrupted three times using a polytron homogenizer (Kinematica) at 20,000 rpm, 30 sec. The disrupt was clarified by centrifugation at 40,000 rpm, 30 min and filtered through a 0.45 μm filter. The filtrate was passed through a column packed with Anti-FLAG M2 Affinity Gel (Sigma Ltd., 4 mL) at a flow rate of about 0.5 mL/min. The column was washed with buffer A and eluted with buffer A containing 100 μg/mL FLAG peptide. The eluate was concentrated by Vivaspin 20 (Viva Science) having a fraction molecular weight of 30K. The concentrate was applied to NAP™ 25 column (Amersham Biosciences) equilibrated with buffer A for buffer exchange. The fractions containing the VEGFR2 intracellular domain protein were collected, glycerol was added to the final concentration of 50% and the fractions cryopreserved at ˜80° C.
The test compound dissolved in dimethyl sulfoxide (DMSO) was diluted with a buffer (50 mM Tris-HCl, pH 7.5, 5 mM MgCl2, 5 mM MnCl2, 2 mM dithiothreitol, 0.01% Tween-20). A buffer (10 μl) containing 50 ng/ml VEGFR2 intracellular domain protein and 250 ng/ml biotin-labeled polypeptide biotinyl-poly-Glu:Tyr (4:1) (CIS Bio International) was added to the compound solution (5 μl). A buffer (10 μl) containing 25 μM ATP was added to the obtained mixture, the mixture was allowed to react at 25° C. for 5 min. Then, 25 μl of a stop solution (100 mM EDTA·2 sodium salt, 62.5 mM HEPES buffer (pH 7.4), 250 mM NaCl, 0.1% bovine serum albumin, 10 μg/ml Streptavidin Donor beads: PerkinElmer for alpha screen assay, 10 μg/ml Anti-phosphotyrosine (P-Tyr-100) Acceptor beads: PerkinElmer for alpha screen assay) was added to quench the reaction. […]

Experiment [3] concerns the target T2, PDGFRbeta Receptor Kinase (PDGFRbeta) (Homo sapiens, UniProt P09619).
T2 construct: PDGFRbeta intracellular domain protein (UPSTATE); purchased UPSTATE
Description: Determination of PDGFRbeta receptor kinase (PDGFRbeta) inhibitory activity (alpha screen). Type of experiment: biochemical. The conditions noted are these: PDGFRbeta intracellular domain protein, 25 μM ATP buffer; read-out: IC50 value (PDGFRbeta kinase inhibition). The procedure:
(§1) The test compound dissolved in dimethyl sulfoxide (DMSO) was diluted with a buffer (50 mM Tris-HCl, pH 7.5, 5 mM MgCl2, 5 mM MnCl2, 2 mM dithiothreitol, 0.01% Tween-20). A buffer (10 μl) containing 125 ng/ml PDGFRbeta intracellular domain protein (UPSTATE) and 250 ng/ml biotin-labeled polypeptide biotinyl-poly-Glu:Tyr (4:1) (CIS Bio International) was added to the compound solution (5 μl). At 5 min after mixing a kinase enzyme, the compound and a biotin-labeled polypeptide, a buffer (10 μl) containing 25 μM ATP was added to the obtained mixture, the mixture was allowed to react at 25° C. for 30 min. Then, 25 μl of a stop solution (100 mM EDTA·2 sodium salt, 62.5 mM HEPES buffer (pH 7.4), 250 mM NaCl, 0.1% bovine serum albumin, 10 μg/ml Streptavidin Donor beads: PerkinElmer for alpha screen assay, 10 μg/ml Anti-phosphotyrosine (P-Tyr-66) Acceptor beads: PerkinElmer for alpha screen assay) was added to quench the reaction. The reaction solution was stood at 25° C. for 16 hr, and the count was measured using a plate reader·Fusion™ (manufactured by PerkinElmer). The kinase inhibitory rate (%) of the test compound was calculated by the following formula.
(§2) Inhibitory rate(%)=(1−(count of test compound−blank)÷(control−blank))×100
(§3) wherein the count of the solution reacted without addition of the compound is “control” and the count of the solution without addition of the compound and ATP is “blank”.

Experiment [4] deals with T3, PDGFR Alpha Receptor Kinase (PDGFRalpha) (Homo sapiens, UniProt P16234).
T3 construct: PDGFRalpha intracellular domain protein (UPSTATE); purchased UPSTATE
T3 sequence (P16234 550-1089 limits assumed): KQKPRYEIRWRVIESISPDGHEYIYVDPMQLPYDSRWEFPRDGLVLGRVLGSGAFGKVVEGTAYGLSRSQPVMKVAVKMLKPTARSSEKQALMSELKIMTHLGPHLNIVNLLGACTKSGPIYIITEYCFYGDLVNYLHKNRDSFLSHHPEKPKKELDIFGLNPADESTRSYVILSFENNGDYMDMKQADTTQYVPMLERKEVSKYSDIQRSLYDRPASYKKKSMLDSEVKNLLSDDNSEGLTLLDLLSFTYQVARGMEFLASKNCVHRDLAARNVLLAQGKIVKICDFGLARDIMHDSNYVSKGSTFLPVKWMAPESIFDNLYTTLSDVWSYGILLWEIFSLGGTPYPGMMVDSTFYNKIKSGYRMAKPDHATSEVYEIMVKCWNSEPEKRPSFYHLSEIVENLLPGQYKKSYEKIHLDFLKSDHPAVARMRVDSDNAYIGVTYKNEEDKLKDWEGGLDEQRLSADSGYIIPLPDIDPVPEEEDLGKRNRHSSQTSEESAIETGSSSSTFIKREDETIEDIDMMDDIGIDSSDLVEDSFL
Put plainly: Determination of PDGFR alpha receptor kinase (PDGFRalpha) inhibitory activity (alpha screen). The conditions noted are these: PDGFRalpha intracellular domain protein, 25 μM ATP buffer; read-out: IC50 value (PDGFRalpha kinase inhibition). Type of experiment: biochemical. The method, then:
The test compound dissolved in dimethyl sulfoxide (DMSO) was diluted with a buffer (50 mM Tris-HCl, pH 7.5, 5 mM MgCl2, 5 mM MnCl2, 2 mM dithiothreitol, 0.01% Tween-20).
Acceptor beads: PerkinElmer for alpha screen assay) was added to quench the reaction. The reaction solution was stood at 25° C. for 16 hr, and the count was measured using a plate reader·Fusion™ (manufactured by PerkinElmer). The kinase inhibitory rate (%) of the test compound was calculated by the following formula.
as §2, §3

Experiment [5] concerns the target T4, TIE2 Receptor Kinase (TIE2) (Homo sapiens, UniProt Q02763).
T4 construct: TIE2 intracellular domain protein (UPSTATE); purchased UPSTATE
Put plainly: Determination of TIE2 receptor kinase (TIE2) inhibitory activity (alpha screen). Type of experiment: biochemical. The conditions noted are these: TIE2 intracellular domain protein, 5 μM ATP buffer; read-out: IC50 value (TIE2 kinase inhibition). The method, then:
as §1, with “containing 50” for “containing 125”, “ng/ml TIE2” for “ng/ml PDGFRbeta”, “containing 5” for “containing 25”, “for 10” for “for 30”
as §2, §3
Prism (Graphpad Software) according to the nonlinear-regression sigmoidal dose-response (variable slope) analysis method.

Each structure is given as a SMILES string.

T2 sequence (P09619 554-1106 limits assumed): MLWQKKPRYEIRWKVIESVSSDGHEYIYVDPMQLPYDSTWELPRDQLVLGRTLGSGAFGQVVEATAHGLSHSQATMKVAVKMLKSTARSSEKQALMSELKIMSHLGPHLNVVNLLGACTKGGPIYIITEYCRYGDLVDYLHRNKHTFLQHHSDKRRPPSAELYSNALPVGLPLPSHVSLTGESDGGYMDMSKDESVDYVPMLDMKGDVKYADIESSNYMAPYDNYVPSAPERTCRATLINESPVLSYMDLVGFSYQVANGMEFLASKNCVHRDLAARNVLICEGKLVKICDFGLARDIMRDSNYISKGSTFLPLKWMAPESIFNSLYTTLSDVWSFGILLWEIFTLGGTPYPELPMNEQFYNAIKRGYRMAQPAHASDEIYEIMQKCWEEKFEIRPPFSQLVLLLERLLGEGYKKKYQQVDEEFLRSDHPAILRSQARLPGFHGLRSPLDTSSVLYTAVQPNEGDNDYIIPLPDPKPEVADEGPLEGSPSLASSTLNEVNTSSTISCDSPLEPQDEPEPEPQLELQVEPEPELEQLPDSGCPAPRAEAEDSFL
T4 sequence (Q02763 770-1124 limits assumed): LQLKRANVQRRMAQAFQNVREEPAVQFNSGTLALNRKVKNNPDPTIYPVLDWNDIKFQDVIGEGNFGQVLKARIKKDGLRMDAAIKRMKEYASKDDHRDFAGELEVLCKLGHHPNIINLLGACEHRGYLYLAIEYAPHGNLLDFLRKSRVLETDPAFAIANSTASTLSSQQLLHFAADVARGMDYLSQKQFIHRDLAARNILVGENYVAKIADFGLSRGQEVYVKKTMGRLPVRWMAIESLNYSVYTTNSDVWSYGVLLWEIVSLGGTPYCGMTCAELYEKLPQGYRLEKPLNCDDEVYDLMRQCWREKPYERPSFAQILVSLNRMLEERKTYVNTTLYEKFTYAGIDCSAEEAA

With `Cn1ccc2ncnc(Oc3ccc(NC(=O)Nc4cccc(Cl)c4)cc3)c21` [Example 4, N-(3-chlorophenyl)-N′-{4-[(5-methyl-5H-pyrrolo[3,2-d]pyrimidin-4-yl)oxy]phenyl}urea], the IC50 in experiment [1] is 91 nM; in experiment [3] it was at most 500 nM; in experiment [4], at most 500 nM. Moreover, in experiment [2], the inhibition at 1 µM is at least 90%.

`Cc1cccc(NC(=O)Nc2ccc(Oc3ncnc4ccn(C)c34)cc2)c1` [Example 18, N-(3-methylphenyl)-N′-{4-[(5-methyl-5H-pyrrolo[3,2-d]pyrimidin-4-yl)oxy]phenyl}urea]: the figures for the IC50 in experiment [1], in experiment [3] and in experiment [4] were 53 nM, at most 500 nM and at most 500 nM, respectively. In addition, the inhibition at 1 µM in experiment [2] is at least 90%.

`COc1cc(Oc2ncnc3ccn(C)c23)ccc1NC(=O)Nc1cccc(C(F)(F)F)c1` [Example 77, N-{2-methoxy-4-[(5-methyl-5H-pyrrolo[3,2-d]pyrimidin-4-yl)oxy]phenyl}-N′-[3-(trifluoromethyl)phenyl]urea]: the 50% inhibitory concentration (IC50) was at most 5 nM in experiment [5], at most 500 nM in experiment [3] and at most 500 nM in experiment [4]. The inhibition at 1 µM in experiment [2] was at least 90%.
